The target in the first assay is T1, KRAS G12C 1-169, his-tagged protein, GDP-loaded (Homo sapiens, UniProt P01116, G12C).
T1 construct: KRAS G12C 1-169, his-tagged protein, GDP-loaded
The assay is described as follows: Biochemical assay: covalent modification of KRAS G12C measured by mass spectrometry (RapidFire/TOF or Q-Exactive). The note with it: covalent binding to KRAS G12C; compounds of structure (I). The method in brief: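 Covalent adduct formation read by intact-mass spectrometry (TOF or Q Exactive Plus, charge envelopes deconvoluted into modified and unmodified species) after formic acid quench. Reactions contained 2 μM GDP-bound KRAS G12C 1-169 (his-tag) in Hepes/NaCl/MgCl2 buffer plus 10, 30 or 100 μM final compound, held 30 min, 2 h or 24 h at room temperature.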
`C=CC(=O)N1CCN(c2nc(NC3CCN(C4CC4)CC3)nc3c(F)c(-c4c(C)ccc5cn[nH]c45)c(Cl)cc23)CC1` [Example I-196, 1-(4-(6-chloro-2-((1-cyclo-propylpiperidin-4-yl)amino)-8-fluoro-7-(6-methyl-1H-indazol-7-yl)quinazolin-4-yl)piperazin-1-yl) prop-2-en-1-one]: the Binding % entry was “++ (++ indicates binding activity from 50 to 90%)”.

For `C=CC(=O)N1CCN(c2c(C#N)c(N3CC(N(C)C)C3)nc3c(F)c(-c4c(O)cccc4F)c(Cl)cc23)CC1` [Example I-197, 4-(4-acryloyl-piperazin-1-yl)-6-chloro-2-(3-(dimethyl-amino)azetidin-1-yl)-8-fluoro-7-(2-fluoro-6-hydroxyphenyl) quinoline-3-carbonitrile], the Binding % result was “++ (++ indicates binding activity from 50 to 90%)”.

With `C=CC(=O)N1CCN(c2nc(CCN3CC(C)(N(C)C)C3)nc3c(F)c(-c4c(O)cccc4F)c(Cl)cc23)CC1` [Example I-198, 1-(4-(6-chloro-2-(2-(3-(dimethyl-amino)-3-methyl-azetidin-1-yl)ethyl)-8-fluoro-7-(2-fluoro-6-hydroxyphenyl)quinazolin-4-yl)piperazin-1-yl) prop-2-en-1-one], the Binding % entry is listed as “++ (++ indicates binding activity from 50 to 90%)”.

In the case of `C=CC(=O)N1CCN(c2nc(CNc3ccccn3)nc3c(F)c(-c4c(O)cccc4F)c(Cl)cc23)CC1` [Example I-199, 1-(4-(6-chloro-8-fluoro-7-(2-fluoro-6-hydroxyphenyl)-2-((pyridin-2-ylamino)methyl)quinazolin-4-yl)piperazin-1-yl) prop-2-en-1-one], the Binding % entry was “+++ (+++ indicates binding activity greater than 90%)”.

Regarding `C=CC(=O)N1CCN(c2nc(CCN3CC(F)(F)C3)nc3c(F)c(-c4c(O)cccc4F)c(Cl)cc23)CC1` [Example I-200, 1-(4-(6-chloro-2-(2-(3,3-difluoro-azetidin-1-yl)ethyl)-8-fluoro-7-(2-fluoro-6-hydroxyphenyl)quinazolin-4-yl)piperazin-1-yl) prop-2-en-1-one], the Binding % entry was “++ (++ indicates binding activity from 50 to 90%)”.

On to `C=CC(=O)N1CCN(c2nc(CCNc3ccccn3)nc3c(F)c(-c4c(O)cccc4F)c(Cl)cc23)CC1` [Example I-201, 1-(4-(6-chloro-8-fluoro-7-(2-fluoro-6-hydroxyphenyl)-2-(2-(pyridin-2-ylamino)ethyl)quinazolin-4-yl)piperazin-1-yl) prop-2-en-1-one], for which the Binding % result is listed as “++ (++ indicates binding activity from 50 to 90%)”.

Turning to `C=CC(=O)N1CCN(c2c(C#N)c(NC3CCN(C4CC4)CC3)nc3c(F)c(-c4c(C)ccc5[nH]ncc45)c(Cl)cc23)CC1` [Example I-202, 4-(4-acryloyl-piperazin-1-yl)-6-chloro-2-((1-cyclopropyl-piperidin-4-yl)amino)-8-fluoro-7-(5-methyl-1H-indazol-4-yl) quinoline-3-carbonitrile], the Binding % entry is on record as “++ (++ indicates binding activity from 50 to 90%)”.

Take `C=CC(=O)N1CCN(c2nc(OCC3CCN(C4CC4)CC3)nc3c(F)c(-c4c(C)ccc5[nH]ncc45)c(Cl)cc23)CC1` [Example I-203, 1-(4-(6-chloro-2-((1-cyclopropyl-piperidin-4-yl)methoxy)-8-fluoro-7-(5-methyl-1H-indazol-4-yl)quinazolin-4-yl)piperazin-1-yl) prop-2-en-1-one]: the Binding % result is reported as “++ (++ indicates binding activity from 50 to 90%)”.

As to `C=CC(=O)N1CCN(c2nc(C(F)(F)F)nc3c(F)c(-c4c(O)cccc4F)c(Cl)cc23)CC1` [Example I-204, 1-(4-(6-chloro-8-fluoro-7-(2-fluoro-6-hydroxyphenyl)-2-(trifluoro-methyl)quinazolin-4-yl)piperazin-1-yl) prop-2-en-1-one], the Binding % entry is listed as “++ (++ indicates binding activity from 50 to 90%)”.

As to `C=CC(=O)N1CCN(c2nc(P(C)(C)=O)nc3c(F)c(-c4c(O)cccc4F)c(Cl)cc23)CC1` [Example I-205, 1-(4-(6-chloro-2-(dimethyl-phosphoryl)-8-fluoro-7-(2-fluoro-6-hydroxyphenyl)quinazolin-4-yl)piperazin-1-yl) prop-2-en-1-one], the Binding % entry was “++ (++ indicates binding activity from 50 to 90%)”.

Consider `C=CC(=O)N1CCN(c2nc(OCCP(C)(C)=O)nc3c(F)c(-c4c(O)cccc4F)c(Cl)cc23)CC1` [Example I-206, 1-(4-(6-chloro-2-(2-(dimethyl-phosphoryl)ethoxy)-8-fluoro-7-(2-fluoro-6-hydroxyphenyl)quinazolin-4-yl)piperazin-1-yl) prop-2-en-1-one], for which the Binding % entry is recorded as “+++ (+++ indicates binding activity greater than 90%)”.

Take `C=CC(=O)N1CCN(c2nc(OCCNP(C)(C)=O)nc3c(F)c(-c4c(O)cccc4F)c(Cl)cc23)CC1` [Example I-207, N-(2-(4-(4-acryloyl-piperazin-1-yl)-6-chloro-8-fluoro-7-(2-fluoro-6-hydroxyphenyl)quinazolin-2-yloxy)ethyl)-P,P-dimethyl-phosphinic amide]: the Binding % result was “++ (++ indicates binding activity from 50 to 90%)”.

As to `C=CC(=O)N1CCN(c2nc(NCCP(C)(C)=O)nc3c(F)c(-c4c(O)cccc4F)c(Cl)cc23)CC1` [Example I-208, 1-(4-(6-chloro-2-(2-(dimethyl-phosphoryl)ethylamino)-8-fluoro-7-(2-fluoro-6-hydroxyphenyl)quinazolin-4-yl)piperazin-1-yl) prop-2-en-1-one], the Binding % entry is “++ (++ indicates binding activity from 50 to 90%)”.

`C=CC(=O)N1CCN(c2nc(CP(C)(C)=O)nc3c(F)c(-c4c(O)cccc4F)c(Cl)cc23)CC1` [Example I-209, 1-(4-(6-chloro-2-((dimethyl-phosphoryl)methyl)-8-fluoro-7-(2-fluoro-6-hydroxyphenyl)quinazolin-4-yl)piperazin-1-yl) prop-2-en-1-one]: the Binding % result was “++ (++ indicates binding activity from 50 to 90%)”.

For `C=CC(=O)N1CCN(c2nc(COCc3ncccc3F)nc3c(F)c(-c4c(O)cccc4F)c(Cl)cc23)CC1` [Example I-210, 1-(4-(6-chloro-8-fluoro-7-(2-fluoro-6-hydroxyphenyl)-2-(((3-fluoro-pyridin-2-yl)methoxy)methyl)quinazolin-4-yl)piperazin-1-yl) prop-2-en-1-one], the Binding % entry is reported as “+++ (+++ indicates binding activity greater than 90%)”.

The assay is the same for the next values; noted with them: covalent binding to KRAS G12C; compounds of structure (II).
Regarding `O=C(/C=C/CN1CCOCC1)N1CCN(c2ncnc3c(F)c(-c4c(O)cccc4F)c(Cl)cc23)CC1` [II-1, (E)-1-(4-(6-chloro-8-fluoro-7-(2-fluoro-6-hydroxyphenyl)quinazolin-4-yl)piperazin-1-yl)-4-morpholinobut-2-en-1-one], the Binding % result is listed as “+ (+ indicates binding activity up to 50%)”.

Turning to `O=C(/C=C/CN1CCC1)N1CCN(c2ncnc3c(F)c(-c4c(O)cccc4F)c(Cl)cc23)CC1` [II-2, (E)-4-(azetidin-1-yl)-1-(4-(6-chloro-8-fluoro-7-(2-fluoro-6-hydroxyphenyl)quinazolin-4-yl)piperazin-1-yl)but-2-en-1-one], the Binding % result was “+++ (+++ indicates binding activity of 75% or greater)”.

Regarding `C=CC(=O)N1CCN(c2ncnc3c(F)c(-c4c(O)ccc(F)c4F)c(Cl)cc23)CC1` [II-3, 1-(4-(6-chloro-7-(2,3-difluoro-6-hydroxyphenyl)-8-fluoroquinazolin-4-yl)piperazin-1-yl)prop-2-en-1-one], the Binding % entry is “+++ (+++ indicates binding activity of 75% or greater)”.

For the molecule `C=CC(=O)N1CC2(CCN(c3ncnc4c(F)c(-c5c(O)cccc5F)c(Cl)cc34)C2)C1` [II-4, 1-(6-(6-chloro-8-fluoro-7-(2-fluoro-6-hydroxyphenyl)quinazolin-4-yl)-2,6-diazaspiro[3.4]octan-2-yl)prop-2-en-1-one], the Binding % entry was “+ (+ indicates binding activity up to 50%)”.

As to `C=CC(=O)N1CCN(c2ncnc3cc(-c4c(F)cccc4C(F)F)c(Cl)cc23)CC1` [II-5, 1-(4-(6-chloro-7-(2-(difluoromethyl)-6-fluorophenyl)quinazolin-4-yl)piperazin-1-yl)prop-2-en-1-one], the Binding % entry was “+ (+ indicates binding activity up to 50%)”.

Consider `C=CC(=O)N1CCN(c2ncnc3c(F)c(-c4c(F)cccc4OCc4cncn4C)c(Cl)cc23)CC1` [II-6, 1-(4-(6-chloro-8-fluoro-7-(2-fluoro-6-((1-methyl-1H-imidazol-5-yl)methoxy)phenyl)quinazolin-4-yl)piperazin-1-yl)prop-2-en-1-one], for which the Binding % result was “++ (++ indicates binding activity greater than 50% and less than 75%)”.

`C=CC(=O)N1CCCN(c2ncnc3c(F)c(-c4c(O)cccc4F)c(Cl)cc23)CC1` [II-7, 1-(4-(6-chloro-8-fluoro-7-(2-fluoro-6-hydroxyphenyl)quinazolin-4-yl)-1,4-diazepan-1-yl)prop-2-en-1-one]: the Binding % result is “+ (+ indicates binding activity up to 50%)”.

For `C=CC(=O)N1CCC2(C1)CN(c1ncnc3c(F)c(-c4c(O)cccc4F)c(Cl)cc13)C2` [II-8, 1-(2-(6-chloro-8-fluoro-7-(2-fluoro-6-hydroxyphenyl)quinazolin-4-yl)-2,6-diazaspiro[3.4]octan-6-yl)prop-2-en-1-one], the Binding % result is recorded as “+ (+ indicates binding activity up to 50%)”.

Take `C=CC(=O)N1CCC(Nc2ncnc3c(F)c(-c4c(O)cccc4F)c(Cl)cc23)C1` (stereo not shown) [II-9, 1-(3-((6-chloro-8-fluoro-7-(2-fluoro-6-hydroxyphenyl)quinazolin-4-yl)amino)pyrrolidin-1-yl)prop-2-en-1-one]: the Binding % entry was “+ (+ indicates binding activity up to 50%)”.

As to `C=CC(=O)N1CCN(c2ncnc3c(F)c(-c4c(F)cccc4OCc4cnc([N+](=O)[O-])n4C)c(Cl)cc23)CC1` [II-10, 1-(4-(6-chloro-8-fluoro-7-(2-fluoro-6-((1-methyl-2-nitro-1H-imidazol-5-yl)methoxy)phenyl)quinazolin-4-yl)piperazin-1-yl)prop-2-en-1-one], the Binding % entry is “+++ (+++ indicates binding activity of 75% or greater)”.
